The source of these data is ChEMBL document CHEMBL1201862, “PubChem BioAssay data set” (2004).

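Five compound concentrations were applied to cells in 96-well plates for 48 hours; endpoints were derived by simple linear interpolation of the resulting dose-response curve. GI50 = concentration required for 50% inhibition of growth.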 The source made the active and inactive calls. No stated cut-off is given here; in the data, active = GI50 up to about 1.1 µM and inactive = higher.

Holding throughout (assay): growth of human tumour cells (NCI), 48 h
The test system of test [1] is 786-0.
The subject of test [2] is A549.
Test [3] relates to BT-549.
The subject of test [4] is EKVX.
Test [5] deals with HCT-15.
Test [6] has as its system HL-60.
Test [7] deals with K562.
Test [8] concerns M14.
Test [9] has as its system MCF7.
The subject of test [10] is MDA-MB-231.
Test [11] has as its system MDA-MB-435.
Test [12] concerns NCI-H226.
Test [13] concerns RPMI-8226.
Test [14] deals with SF-268.
Test [15] deals with SF-539.
In test [16] the test system is SK-MEL-2.
Test [17] has as its system SK-OV-3.
Test [18] deals with SNB-19.
For test [19], the system named is SW-620.
Test [20] concerns U-251.

As to `Cc1c2cnccc2c(C)c2c1c1ccccc1n2CCOC(=O)c1ccccc1`, the GI50 is 11.5 µM (inactive) in [1]; 10.8 µM (inactive) in test [2]; 33 µM (inactive) in test [3]; 13.3 µM (inactive) in test [4]; 11.9 µM in test [5]; 5.85 µM (inactive) in test [6]. Moreover, the GI50 in test [7] was 9.71 µM (inactive); in test [8], 26.7 µM (inactive); in test [9] it was 9.64 µM (inactive); in [10] it was 38.9 µM (inactive); in test [11] it was 14.4 µM (inactive); in [12], 12.6 µM (inactive). Moreover, the GI50 in test [13] was 8.57 µM (inactive); in [14], 11.4 µM (inactive); in test [15], 6.21 µM (inactive); in [16] it was 12.5 µM (inactive); in test [17], 5.33 µM (inactive); in test [18], 10.7 µM (inactive). Besides, the GI50 is 6.31 µM (inactive) in [19] and 15.7 µM (inactive) in [20].

In the case of `Cc1ccc2nc(N/N=C/c3cccc(C)n3)cc(C)c2c1`, the GI50 in [1] was 16.2 µM (inactive); in test [2], 16 µM (inactive); in [3], 18.8 µM (inactive); in test [4], 16.6 µM (inactive); in [5], 14.2 µM; in [6], 2.26 µM (inactive). The GI50 in test [7] is 45 µM (inactive); in test [8] it was 24.2 µM (inactive); in test [9] it was 13.6 µM (inactive); in test [10], 18.6 µM (inactive); in test [11], 15.7 µM (inactive); in [12] it was 24.7 µM (inactive). For the same molecule, the GI50 in test [13] is 14 µM (inactive); in test [14], 17.2 µM (inactive); in test [15], 17.8 µM (inactive); in test [16], 18.8 µM (inactive); in [17] it was 15.4 µM (inactive); in test [18] it was 20.5 µM (inactive). The values for the GI50 in [19] and in [20] were 17.1 µM (inactive) and 16.9 µM (inactive), respectively.

On to `CSc1c(C#N)c(N)n(-c2ccc(Cl)cc2)c(=O)c1C#N`, for which the GI50 in [1] was > 100 µM (inactive); in test [2], > 100 µM (inactive); in test [3], > 100 µM (inactive); in test [4], > 100 µM (inactive); in test [5] it was > 100 µM; in [6], 46.3 µM (inactive). Besides, the GI50 in [7] is > 100 µM (inactive); in test [8], > 100 µM (inactive); in [9] it was > 100 µM (inactive); in test [10], > 100 µM (inactive); in test [11], > 100 µM (inactive); in test [12], 59.7 µM (inactive). The GI50 in test [13], in test [14], in test [15], in test [16], in [17] and in [18] was > 100 µM (inactive) in each case. Further, the GI50 in [19] and in [20] was > 100 µM (inactive) each time.

In the case of `CCC(=O)OCOc1ccc(/C=C2\CCC(CN(C)C)C2=O)cc1` (stereo not given), the GI50 in [1] was 2.45 µM (inactive); in test [2], 18.3 µM (inactive); in test [3], 2.05 µM (inactive); in test [4] it was 14 µM (inactive); in test [5], 3.13 µM; in test [6], 1.36 µM (inactive). Besides, the GI50 in test [7] was 1.85 µM (inactive); in test [8], 3.42 µM (inactive); in test [9] it was 3.03 µM (inactive); in [10] it was 3.67 µM (inactive); in test [11] it was 3.34 µM (inactive); in test [12], 13.8 µM (inactive). Besides, the GI50 in [13] was 2.43 µM (inactive); in test [14], 8.59 µM (inactive); in test [15], 8.41 µM (inactive); in test [16], 11 µM (inactive); in test [17], 15.7 µM (inactive); in test [18] it was 16.7 µM (inactive). The figures for the GI50 in [19] and in test [20] were 2.32 µM (inactive) and 11.1 µM (inactive), respectively.
